Source: BindingDB's records for doi:10.1016/j.bmcl.2004.06.037 (Alcon Research, 2004)

The compounds below were run against Prostaglandin F2-alpha receptor (Mus musculus) (UniProt P43117) (assay: Efficacy for stimulation of prostanoid FP receptor-linked phosphoinositide turnover in Swiss 3T3 mouse fibroblast cells).
Sequence of Prostaglandin F2-alpha receptor (Mus musculus) (P43117 whole entry, looked up): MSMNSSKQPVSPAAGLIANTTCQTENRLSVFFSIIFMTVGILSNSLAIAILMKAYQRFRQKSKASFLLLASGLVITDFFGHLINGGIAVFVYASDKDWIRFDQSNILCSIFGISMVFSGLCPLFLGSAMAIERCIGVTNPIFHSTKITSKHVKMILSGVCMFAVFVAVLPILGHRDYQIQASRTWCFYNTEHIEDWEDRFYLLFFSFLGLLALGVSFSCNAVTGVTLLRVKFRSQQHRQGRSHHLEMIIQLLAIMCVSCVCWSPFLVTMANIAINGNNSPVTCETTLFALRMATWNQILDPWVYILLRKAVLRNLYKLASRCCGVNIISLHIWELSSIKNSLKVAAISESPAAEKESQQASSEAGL

SMILES | EC50 [nM]
CCCCC[C@H](O)/C=C/[C@H]1OC[C@H](O)[C@@H]1C/C=C\CCCC(=O)O [(Z)-7-[(2R,3S,4R)-4-Hydroxy-2-((E)-(S)-3-hydroxy-oct-1-enyl)-tetrahydro-furan-3-yl]-hept-5-enoic acid] | 2380
O=C(O)CC/C=C\CCC[C@H]1[C@@H](O)CO[C@@H]1/C=C/[C@H](O)COc1cccc(Cl)c1 [(Z)-8-{(2R,3S,4R)-2-[(E)-(S)-4-(3-Chloro-phenoxy)-3-hydroxy-but-1-enyl]-4-hydroxy-tetrahydro-furan-3-yl}-oct-4-enoic acid] | 249
O=C(O)CCCC/C=C\C[C@H]1[C@@H](O)CO[C@@H]1/C=C/[C@H](O)COc1ccccc1 [(Z)-8-[(R)-4-Hydroxy-2-((1R,2S,4S)-3-hydroxy-4-phenoxy-but-1-enyl)-tetrahydro-furan-3-yl]-oct-6-enoic acid] | 573
O=C(O)CC/C=C\CCC[C@H]1[C@@H](O)CO[C@@H]1/C=C/[C@H](O)COc1ccccc1 [(Z)-8-[(2R,3S,4R)-4-Hydroxy-2-((E)-(S)-3-hydroxy-4-phenoxy-but-1-enyl)-tetrahydro-furan-3-yl]-oct-4-enoic acid] | 252
O=C(O)CC/C=C\CCC[C@H]1[C@@H](O)CO[C@@H]1/C=C/[C@H](O)COc1cccc(C(F)(F)F)c1 [(Z)-8-{(2R,3S,4R)-4-Hydroxy-2-[(E)-(S)-3-hydroxy-4-(3-trifluoromethyl-phenoxy)-but-1-enyl]-tetrahydro-furan-3-yl}-oct-4-enoic acid] | 781
O=C(O)CCCC/C=C\C[C@H]1[C@@H](O)CO[C@@H]1/C=C/[C@H](O)COc1cccc(Cl)c1 [(Z)-8-{(2R,3S,4R)-2-[(E)-(S)-4-(3-Chloro-phenoxy)-3-hydroxy-but-1-enyl]-4-hydroxy-tetrahydro-furan-3-yl}-oct-6-enoic acid] | 194
O=C(O)CCCC/C=C\C[C@H]1[C@@H](O)CO[C@@H]1/C=C/[C@@H](O)COc1ccccc1 [(Z)-8-[(2R,3S,4R)-4-Hydroxy-2-((E)-(R)-3-hydroxy-4-phenoxy-but-1-enyl)-tetrahydro-furan-3-yl]-oct-6-enoic acid] | 293
CCCCC[C@@H](O)/C=C/[C@H]1OC[C@H](O)[C@@H]1C/C=C\CCCC(=O)O [(Z)-7-[(2R,3S,4R)-4-Hydroxy-2-((E)-(R)-3-hydroxy-oct-1-enyl)-tetrahydro-furan-3-yl]-hept-5-enoic acid] | > 10000
O=C(O)CCCC/C=C\C[C@H]1[C@@H](O)CO[C@@H]1/C=C/[C@H](O)COc1cccc(C(F)(F)F)c1 [(Z)-8-{(2R,3S,4R)-4-Hydroxy-2-[(E)-(S)-3-hydroxy-4-(3-trifluoromethyl-phenoxy)-but-1-enyl]-tetrahydro-furan-3-yl}-oct-6-enoic acid] | 899
O=C(O)CCCC/C=C\C[C@H]1[C@@H](O)CO[C@@H]1/C=C/[C@@H](O)COc1cccc(C(F)(F)F)c1 [(Z)-8-{(2R,3S,4R)-4-Hydroxy-2-[(E)-(R)-3-hydroxy-4-(3-trifluoromethyl-phenoxy)-but-1-enyl]-tetrahydro-furan-3-yl}-oct-6-enoic acid] | 187

These reach a lower EC50. Values come first.

EC50 [nM] | SMILES
67 | O=C(O)CC/C=C\CCC[C@H]1[C@@H](O)CO[C@@H]1/C=C/[C@@H](O)COc1cccc(C(F)(F)F)c1 [(Z)-8-{(2R,3S,4R)-4-Hydroxy-2-[(E)-(R)-3-hydroxy-4-(3-trifluoromethyl-phenoxy)-but-1-enyl]-tetrahydro-furan-3-yl}-oct-4-enoic acid]
58 | O=C(O)CCCC/C=C\C[C@H]1[C@@H](O)CO[C@@H]1/C=C/[C@@H](O)COc1cccc(Cl)c1 [(Z)-8-{(2R,3S,4R)-2-[(E)-(R)-4-(3-Chloro-phenoxy)-3-hydroxy-but-1-enyl]-4-hydroxy-tetrahydro-furan-3-yl}-oct-6-enoic acid]
57 | O=C(O)CC/C=C\CCC[C@H]1[C@@H](O)CO[C@@H]1/C=C/[C@@H](O)COc1ccccc1 [(Z)-8-[(2R,3S,4R)-4-Hydroxy-2-((E)-(R)-3-hydroxy-4-phenoxy-but-1-enyl)-tetrahydro-furan-3-yl]-oct-4-enoic acid]
34.4 | CC(C)OC(=O)CCC/C=C/C[C@@H]1[C@@H](CC[C@@H](O)CCc2ccccc2)[C@H](O)C[C@@H]1O [LATANOPROST (PHXA41)]
23 | O=C(O)CC/C=C\CCC[C@H]1[C@@H](O)CO[C@@H]1/C=C/[C@@H](O)COc1cccc(Cl)c1 [(Z)-8-{(2R,3S,4R)-2-[(E)-(R)-4-(3-Chloro-phenoxy)-3-hydroxy-but-1-enyl]-4-hydroxy-tetrahydro-furan-3-yl}-oct-4-enoic acid]
2.7 | CC(C)OC(=O)CCC/C=C/C[C@@H]1[C@@H](/C=C/C(O)COc2cccc(C(F)(F)F)c2)[C@H](O)C[C@@H]1O (stereo partly drawn) [(E)-7-{(1R,2R,3R,5S)-3,5-Dihydroxy-2-[(E)-3-hydroxy-4-(3-trifluoromethyl-phenoxy)-but-1-enyl]-cyclopentyl}-hept-5-enoic acid isopropyl ester]
